Laboratory results reported in ChEMBL document CHEMBL1201862, “PubChem BioAssay data set” (2004).
Calls of active or inactive are those of the source.

Experiments:
[1] = molecular target: Eukaryotic elongation factor 2 kinase (Homo sapiens, UniProt O00418); type: functional
SRSF protein kinase 1 = SRSF protein kinase 1 (Homo sapiens, UniProt Q96SB4); type: functional;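 also: measured as one member of a kinome-wide kinase profiling panel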
[2] = molecular target: Tyrosine-protein kinase ABL1 (Homo sapiens, UniProt P00519); type: functional
Aurora kinase B = Aurora kinase B (Homo sapiens, UniProt Q96GD4); type: functional
[3] = molecular target: Cyclin-dependent kinase 1 (Homo sapiens, UniProt P06493); type: functional;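 also: Kinome-wide panel profiling, with the target listed as panel member CDC2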
[4] = molecular target: Cyclin-dependent kinase 8 (Homo sapiens, UniProt P49336); assay: Navigating the Kinome. Panel member name: CDK8; type: functional
[5] = molecular target: T1, RNA-binding protein pos-1 (Caenorhabditis elegans, UniProt G5EF15); assay: disruptors of C. elegans POS-1 RNA interaction – biochemical, fluorescence polarization, dose response (AID 1964);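 also: purified POS-1 fused to maltose binding protein made in E. coli; potency of compounds blocking POS-1 binding to fluorescent RNA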
T1 sequence (G5EF15 whole entry): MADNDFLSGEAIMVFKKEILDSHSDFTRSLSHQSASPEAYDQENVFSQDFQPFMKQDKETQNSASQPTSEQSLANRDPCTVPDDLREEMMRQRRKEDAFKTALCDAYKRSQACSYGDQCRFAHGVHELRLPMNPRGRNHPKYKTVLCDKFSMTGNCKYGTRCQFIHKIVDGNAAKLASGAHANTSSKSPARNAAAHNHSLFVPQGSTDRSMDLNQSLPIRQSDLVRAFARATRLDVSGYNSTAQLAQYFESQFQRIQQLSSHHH

ORF 73 = ORF 73 (Human herpesvirus 8, UniProt O40947); assay: KSHV LANA DNA-binding disruption – biochemical, fluorescence polarization, cherry-picked samples, dose response (AID 504725); design: species or system Human gammaherpesvirus 8;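 also: fluorescence polarization of a labeled DNA duplex reporting LANA DNA binding; potency is for inhibitors that block LANA binding to the DNA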
Keap1/Nrf2 = Keap1/Nrf2 (Homo sapiens, UniProt Q14145); assay: disruptors of Keap1 binding to Nrf2 peptide – biochemical, fluorescence polarization, cherry-picked samples, dose response (AID 588683)
[6] = molecular target: T2, Rac GTPase-activating protein 1 (Homo sapiens, UniProt Q9H0H5); assay: blockers of MgcRacGAP-driven Rac1 GTP hydrolysis – biochemical, ADP Hunter fluorescence, primary and confirmatory, confirmation (AID 624330); type: functional
T2 sequence (Q9H0H5 whole entry): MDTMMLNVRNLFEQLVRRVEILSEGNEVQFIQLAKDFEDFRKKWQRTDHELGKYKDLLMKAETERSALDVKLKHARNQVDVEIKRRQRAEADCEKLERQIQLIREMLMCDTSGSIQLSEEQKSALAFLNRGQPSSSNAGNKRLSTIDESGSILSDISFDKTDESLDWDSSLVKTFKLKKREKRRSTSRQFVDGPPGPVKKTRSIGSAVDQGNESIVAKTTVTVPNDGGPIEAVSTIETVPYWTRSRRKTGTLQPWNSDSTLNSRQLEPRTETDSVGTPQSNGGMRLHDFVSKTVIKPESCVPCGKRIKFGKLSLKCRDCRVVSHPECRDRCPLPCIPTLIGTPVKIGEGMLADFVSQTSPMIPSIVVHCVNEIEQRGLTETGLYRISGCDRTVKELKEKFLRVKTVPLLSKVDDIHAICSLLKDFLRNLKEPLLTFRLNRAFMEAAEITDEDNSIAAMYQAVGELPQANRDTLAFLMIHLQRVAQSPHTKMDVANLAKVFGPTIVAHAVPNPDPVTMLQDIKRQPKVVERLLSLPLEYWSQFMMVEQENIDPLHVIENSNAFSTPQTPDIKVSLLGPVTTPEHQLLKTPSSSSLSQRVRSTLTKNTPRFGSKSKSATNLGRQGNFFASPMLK

[7] = NIH3T3 cell viability loss – ATP luminescence, mouse fibroblasts, counter-screen, dose response (AID 2010); type: functional, cell-based;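 also: cells exposed to compound for about 90 hours before reading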
[8] = molecular target: T3, Histone-lysine N-methyltransferase NSD2 (Homo sapiens, UniProt O96028); type: biochemical
T3 sequence (O96028 whole entry): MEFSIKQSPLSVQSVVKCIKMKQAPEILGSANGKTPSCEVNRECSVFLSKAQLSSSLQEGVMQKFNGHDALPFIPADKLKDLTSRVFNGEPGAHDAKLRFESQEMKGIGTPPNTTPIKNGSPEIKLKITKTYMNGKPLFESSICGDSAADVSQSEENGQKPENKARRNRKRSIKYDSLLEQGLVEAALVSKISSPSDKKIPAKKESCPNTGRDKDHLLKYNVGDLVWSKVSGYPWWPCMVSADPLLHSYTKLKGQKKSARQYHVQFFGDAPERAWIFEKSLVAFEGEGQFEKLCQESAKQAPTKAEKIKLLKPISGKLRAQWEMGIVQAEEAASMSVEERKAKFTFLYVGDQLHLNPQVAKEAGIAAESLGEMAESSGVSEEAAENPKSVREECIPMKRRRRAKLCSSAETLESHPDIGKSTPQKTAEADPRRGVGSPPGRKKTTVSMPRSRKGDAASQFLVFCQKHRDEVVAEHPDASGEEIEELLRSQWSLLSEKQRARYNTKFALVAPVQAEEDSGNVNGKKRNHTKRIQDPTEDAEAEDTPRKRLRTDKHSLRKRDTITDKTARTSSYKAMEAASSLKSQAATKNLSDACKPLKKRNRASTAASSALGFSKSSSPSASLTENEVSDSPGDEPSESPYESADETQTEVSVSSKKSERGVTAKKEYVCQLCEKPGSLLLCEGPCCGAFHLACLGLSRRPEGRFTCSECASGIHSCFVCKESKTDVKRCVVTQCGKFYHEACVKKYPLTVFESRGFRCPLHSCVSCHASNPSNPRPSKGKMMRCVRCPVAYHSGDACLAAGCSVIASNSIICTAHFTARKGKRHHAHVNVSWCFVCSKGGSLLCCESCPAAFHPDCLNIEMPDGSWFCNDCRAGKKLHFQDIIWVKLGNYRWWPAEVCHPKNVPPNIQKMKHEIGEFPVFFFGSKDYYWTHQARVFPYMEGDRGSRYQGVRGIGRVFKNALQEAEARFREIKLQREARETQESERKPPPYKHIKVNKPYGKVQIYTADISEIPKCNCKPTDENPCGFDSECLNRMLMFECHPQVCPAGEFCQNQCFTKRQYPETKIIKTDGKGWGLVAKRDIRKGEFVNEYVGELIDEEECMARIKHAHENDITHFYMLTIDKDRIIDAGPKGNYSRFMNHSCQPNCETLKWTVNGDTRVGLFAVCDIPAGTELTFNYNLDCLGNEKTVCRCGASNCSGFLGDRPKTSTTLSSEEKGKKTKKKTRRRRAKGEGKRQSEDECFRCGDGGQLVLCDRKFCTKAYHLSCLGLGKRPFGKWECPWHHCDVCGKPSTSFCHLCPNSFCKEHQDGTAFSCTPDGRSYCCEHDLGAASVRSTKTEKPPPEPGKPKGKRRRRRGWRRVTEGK

Cyclin-dependent kinase 1, sequence (P06493 whole entry): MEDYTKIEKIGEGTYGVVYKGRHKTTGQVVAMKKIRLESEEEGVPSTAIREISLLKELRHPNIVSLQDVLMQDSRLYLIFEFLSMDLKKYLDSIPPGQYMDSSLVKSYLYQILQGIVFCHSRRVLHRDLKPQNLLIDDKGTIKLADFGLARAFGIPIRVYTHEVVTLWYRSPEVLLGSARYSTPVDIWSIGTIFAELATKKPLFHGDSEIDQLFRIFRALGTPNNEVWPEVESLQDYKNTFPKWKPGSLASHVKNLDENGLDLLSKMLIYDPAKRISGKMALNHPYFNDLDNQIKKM
Cyclin-dependent kinase 8, sequence (P49336 whole entry, the tested form may be a part): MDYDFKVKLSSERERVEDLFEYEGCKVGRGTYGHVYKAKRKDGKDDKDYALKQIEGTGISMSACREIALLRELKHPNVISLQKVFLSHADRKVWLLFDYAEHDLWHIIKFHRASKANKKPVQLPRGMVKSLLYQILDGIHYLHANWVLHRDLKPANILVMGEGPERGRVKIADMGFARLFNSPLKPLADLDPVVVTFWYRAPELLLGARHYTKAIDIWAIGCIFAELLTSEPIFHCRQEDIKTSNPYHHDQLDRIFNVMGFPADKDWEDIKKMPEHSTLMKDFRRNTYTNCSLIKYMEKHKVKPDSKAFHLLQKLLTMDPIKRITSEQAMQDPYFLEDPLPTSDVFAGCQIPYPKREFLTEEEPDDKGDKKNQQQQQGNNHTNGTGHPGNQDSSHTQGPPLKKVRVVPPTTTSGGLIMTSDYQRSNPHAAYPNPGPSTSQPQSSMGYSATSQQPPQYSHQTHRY
Tyrosine-protein kinase ABL1, sequence (P00519 whole entry): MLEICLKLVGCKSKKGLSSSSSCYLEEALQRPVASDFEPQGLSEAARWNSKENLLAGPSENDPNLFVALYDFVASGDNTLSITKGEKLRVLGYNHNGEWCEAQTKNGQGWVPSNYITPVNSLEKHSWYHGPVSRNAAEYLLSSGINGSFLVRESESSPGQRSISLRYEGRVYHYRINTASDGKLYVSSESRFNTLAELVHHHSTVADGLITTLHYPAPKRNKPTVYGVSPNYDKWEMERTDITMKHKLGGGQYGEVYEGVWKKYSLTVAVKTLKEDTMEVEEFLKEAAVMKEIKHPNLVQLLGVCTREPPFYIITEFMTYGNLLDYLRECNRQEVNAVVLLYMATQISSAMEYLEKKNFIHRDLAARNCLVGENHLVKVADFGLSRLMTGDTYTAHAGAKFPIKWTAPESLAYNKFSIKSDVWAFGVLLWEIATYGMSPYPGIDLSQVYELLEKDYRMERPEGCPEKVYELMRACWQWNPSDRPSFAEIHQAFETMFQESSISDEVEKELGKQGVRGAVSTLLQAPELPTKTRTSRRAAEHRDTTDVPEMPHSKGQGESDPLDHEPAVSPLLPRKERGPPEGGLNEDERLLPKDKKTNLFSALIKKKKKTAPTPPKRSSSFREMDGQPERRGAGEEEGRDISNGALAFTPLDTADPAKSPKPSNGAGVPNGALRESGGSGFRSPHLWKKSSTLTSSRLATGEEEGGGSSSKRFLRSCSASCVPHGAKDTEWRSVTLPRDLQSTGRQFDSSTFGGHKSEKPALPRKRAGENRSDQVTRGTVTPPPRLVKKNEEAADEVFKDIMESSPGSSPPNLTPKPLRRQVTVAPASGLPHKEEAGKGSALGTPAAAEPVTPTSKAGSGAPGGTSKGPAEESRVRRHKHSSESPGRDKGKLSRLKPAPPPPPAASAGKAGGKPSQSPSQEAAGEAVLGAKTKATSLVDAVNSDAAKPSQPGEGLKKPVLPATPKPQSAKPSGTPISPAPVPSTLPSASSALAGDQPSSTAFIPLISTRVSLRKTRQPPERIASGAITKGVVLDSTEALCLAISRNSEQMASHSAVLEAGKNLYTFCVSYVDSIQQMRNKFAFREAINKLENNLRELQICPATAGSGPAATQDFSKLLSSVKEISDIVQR
SRSF protein kinase 1, sequence (Q96SB4 whole entry): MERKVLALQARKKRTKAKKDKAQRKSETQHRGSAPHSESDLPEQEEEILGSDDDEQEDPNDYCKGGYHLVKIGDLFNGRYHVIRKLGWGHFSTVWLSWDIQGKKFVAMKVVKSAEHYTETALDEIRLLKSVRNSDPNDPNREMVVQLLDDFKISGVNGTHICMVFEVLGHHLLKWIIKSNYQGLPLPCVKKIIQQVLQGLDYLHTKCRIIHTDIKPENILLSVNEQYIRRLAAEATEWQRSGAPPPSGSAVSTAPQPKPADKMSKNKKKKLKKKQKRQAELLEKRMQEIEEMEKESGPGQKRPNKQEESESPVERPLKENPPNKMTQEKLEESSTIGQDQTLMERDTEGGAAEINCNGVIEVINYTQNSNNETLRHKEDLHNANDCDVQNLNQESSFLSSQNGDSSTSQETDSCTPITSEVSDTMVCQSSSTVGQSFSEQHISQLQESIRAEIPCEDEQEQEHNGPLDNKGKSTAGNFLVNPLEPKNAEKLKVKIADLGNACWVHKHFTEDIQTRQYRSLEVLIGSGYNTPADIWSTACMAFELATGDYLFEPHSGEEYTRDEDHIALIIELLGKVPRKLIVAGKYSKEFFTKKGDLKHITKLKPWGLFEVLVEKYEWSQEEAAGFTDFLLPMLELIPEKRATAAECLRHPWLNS
ORF 73, sequence (O40947 whole entry): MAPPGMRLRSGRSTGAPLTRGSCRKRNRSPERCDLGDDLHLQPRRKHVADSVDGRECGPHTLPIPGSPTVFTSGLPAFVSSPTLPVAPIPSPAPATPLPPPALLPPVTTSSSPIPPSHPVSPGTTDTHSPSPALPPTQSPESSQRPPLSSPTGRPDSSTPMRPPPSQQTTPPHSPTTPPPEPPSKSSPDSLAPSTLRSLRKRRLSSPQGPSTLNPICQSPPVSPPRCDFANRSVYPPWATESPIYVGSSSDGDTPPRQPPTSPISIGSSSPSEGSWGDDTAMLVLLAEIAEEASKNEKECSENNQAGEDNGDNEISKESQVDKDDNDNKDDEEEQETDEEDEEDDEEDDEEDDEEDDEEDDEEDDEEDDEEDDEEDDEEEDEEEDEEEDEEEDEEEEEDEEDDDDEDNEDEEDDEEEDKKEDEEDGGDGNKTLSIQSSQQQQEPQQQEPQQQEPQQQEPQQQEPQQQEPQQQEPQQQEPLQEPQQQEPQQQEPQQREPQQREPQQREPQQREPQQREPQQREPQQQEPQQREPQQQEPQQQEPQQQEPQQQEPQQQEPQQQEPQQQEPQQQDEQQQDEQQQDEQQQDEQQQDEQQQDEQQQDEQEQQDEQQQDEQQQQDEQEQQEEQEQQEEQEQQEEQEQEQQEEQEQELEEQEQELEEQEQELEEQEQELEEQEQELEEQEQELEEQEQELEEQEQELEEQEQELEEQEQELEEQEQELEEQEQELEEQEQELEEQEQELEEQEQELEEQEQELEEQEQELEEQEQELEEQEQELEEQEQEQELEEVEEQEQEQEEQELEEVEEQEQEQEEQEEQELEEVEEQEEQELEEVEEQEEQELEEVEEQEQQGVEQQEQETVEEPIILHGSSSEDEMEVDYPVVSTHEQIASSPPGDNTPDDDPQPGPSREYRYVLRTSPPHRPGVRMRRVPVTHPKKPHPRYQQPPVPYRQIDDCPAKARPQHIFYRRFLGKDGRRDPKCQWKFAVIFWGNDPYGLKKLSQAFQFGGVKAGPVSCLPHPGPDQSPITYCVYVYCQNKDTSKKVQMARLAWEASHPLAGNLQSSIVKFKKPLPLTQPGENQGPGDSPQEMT
Eukaryotic elongation factor 2 kinase, sequence (O00418 whole entry): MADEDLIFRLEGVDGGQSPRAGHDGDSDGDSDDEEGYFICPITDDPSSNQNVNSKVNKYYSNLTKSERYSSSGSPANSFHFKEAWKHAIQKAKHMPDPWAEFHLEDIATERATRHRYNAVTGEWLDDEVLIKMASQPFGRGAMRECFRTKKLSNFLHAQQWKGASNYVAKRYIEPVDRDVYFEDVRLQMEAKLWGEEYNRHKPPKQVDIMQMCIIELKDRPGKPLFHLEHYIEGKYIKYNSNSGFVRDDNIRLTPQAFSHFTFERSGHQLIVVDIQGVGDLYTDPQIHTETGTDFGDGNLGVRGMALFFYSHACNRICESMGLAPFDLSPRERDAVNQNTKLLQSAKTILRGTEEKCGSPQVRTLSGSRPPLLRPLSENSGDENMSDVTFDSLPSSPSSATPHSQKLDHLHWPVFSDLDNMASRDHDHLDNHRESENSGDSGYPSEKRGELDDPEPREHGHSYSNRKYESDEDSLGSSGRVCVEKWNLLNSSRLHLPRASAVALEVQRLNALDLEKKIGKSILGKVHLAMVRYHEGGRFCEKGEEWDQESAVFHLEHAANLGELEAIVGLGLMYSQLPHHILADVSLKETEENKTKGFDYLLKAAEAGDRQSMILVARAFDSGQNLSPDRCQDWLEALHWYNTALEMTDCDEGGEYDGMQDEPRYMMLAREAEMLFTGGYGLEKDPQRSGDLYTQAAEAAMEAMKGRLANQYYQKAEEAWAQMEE
Aurora kinase B, sequence (Q96GD4 whole entry): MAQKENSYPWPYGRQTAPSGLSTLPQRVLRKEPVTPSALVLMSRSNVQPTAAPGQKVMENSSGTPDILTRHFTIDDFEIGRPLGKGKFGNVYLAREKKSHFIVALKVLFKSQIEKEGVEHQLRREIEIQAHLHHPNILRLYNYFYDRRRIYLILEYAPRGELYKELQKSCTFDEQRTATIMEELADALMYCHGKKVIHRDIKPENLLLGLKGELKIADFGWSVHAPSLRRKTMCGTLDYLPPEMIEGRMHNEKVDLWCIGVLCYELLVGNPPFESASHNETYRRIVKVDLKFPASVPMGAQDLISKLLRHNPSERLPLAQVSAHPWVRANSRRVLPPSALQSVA

Cc1n[nH]c2ccc(-c3cncc(OCC(N)Cc4cccc(Cl)c4)c3)cc12 (centres undefined)
Ki [1]: > 3.98 µM (inactive)
Ki (SRSF protein kinase 1): > 5.01 µM (inactive)
Ki [2]: > 631 nM (inactive)
Ki (Aurora kinase B): 200 nM (active)
Ki [3]: 39.8 nM (active)
pKi [3]: 7.4
Ki [4]: 1.58 nM (active)
pKi [4]: 8.8

O=C(O)C1Nc2c(O)cc(Cl)c([N+](=O)[O-])c2C2C=CCC12 (centres undefined)
EC50 [5]: 216 µM (inconclusive)
AC50 (ORF 73): 5.02 µM (active)
AC50 (Keap1/Nrf2): > 52 µM (inactive)
IC50 [6]: 27.9 µM (active)

O=C(CCc1ccccc1)NNc1cc(N2CCCCC2)nc(N2CCCCC2)n1
EC50 [7]: > 60 µM (not active)

O=C1C=C(N2CCCCC2)c2ccccc2C1=O
AC50 [8]: 1.11 µM (active)
